How the values were obtained:
[1] = system: patients with newly reported Acute Coronary Syndrome (ACS); assay: Study 5: randomized controlled trial, Ticagrelor with QFM (active group) versus Ticagrelor with e-diary (control group); format: in vivo, human
Source text: The study design was two different patient groups with at least eighty patients in each group. The group using the invention, hereafter called the active group, used their own mobile phones to use the QFM described above and the actual drug Ticagrelor. The other group, hereafter called the control group, used their own mobile phones with just an e-diary (control app) and the actual drug Ticagrelor.
Study design: Randomized Controlled Trial with two different patient groups
Intervention to evaluate: The invention using the above described QFM in the patients mobile phones, integrated with the actual drug
Actual used drug: Ticagrelor (Brilique)
Control: e-diary. The e-diary consisted of the following items and functionalities, enabling data for study evaluation • The questions concerning adherence to the specific drug, being able to answer whether the patient took the drug in the morning and/or in the evening, for the actual day and the day before. • A reminder through a text message if the patient missed to answer the adherence questions during one day
Patient group: Patients with newly reported Acute Coronary Syndrome (ACS).
Number of patients in total: 166
Length of using the invention: Six months
Primary objective: Assess the non-adherence to the drug according to the prescription recommendation in patients using the invention compared to patients who only use the control-app
The primary endpoint definition was according to the following: Composite endpoint of adherence failure- or treatment gap events registered by patients • Adherence failure events; • More than 14% missed doses during an observation cycle of 7 days. The first missed dose of the drug initiates an observation cycle of 1 week. If a second missed dose is registered within this week an adherence failure event is registered. The third missed dose initiates a new observation cycle, and the process restarts. • Treatment gap events; • patient reported gaps of more than 4 consecutive doses
Secondary objectives: Comparison between active group and control group concerning; • Adherence to treatment of the specific drug • Cardiovascular risk factors: • BMI • Physical activity • Blood pressure • LDL-cholesterol • Smoking cessation • Quality of life (EQ5D-VAS)
The patients with ACS was randomly selected to one of the study arms. After inclusion patients in the active group used the described QFM in relation to the actual drug during the actual period of time.

[2] = source: EPAR summary for Lyrica; cited from earlier work
[3] = Active group (QFM + Ticagrelor)
[4] = Control group (e-diary + Ticagrelor)

## CCCSc1nc(N[C@@H]2C[C@H]2c2ccc(F)c(F)c2)c2nnn([C@@H]3C[C@H](OCCO)[C@@H](O)[C@H]3O)c2n1 [Ticagrelor, ticagrelor]
[1]; [3]
  LDL change: −1.8
  Physical activity improvements: 50%
  Quality of life (EQ5D-VAS) change: +14.7
  Smoking cessation: −80%
[1]; [4]
  LDL change: −1.0
  Physical activity improvements: 32%
  Quality of life (EQ5D-VAS) change: +8.4
  Smoking cessation: −45%
[1]; Patients having a BMI >30, group not stated
  BMI; average decrease in weight: 5%
[1]; six months
  patient deaths during the usage of the invention: No patients in the study died

## CC(C)C[C@H](CN)CC(=O)O [A, pregabalin]
[2]
  Common side-effects which may affect more than 1 person in 100 (among others): dry mouth, nausea
  Very common side-effects which may affect more than 1 person in 10: dizziness, tiredness
